Experimental data reported in US20240199613A1 (TAKEDA PHARMACEUTICAL COMPANY LIMITED, priority 2021, published 2024).

Tests used:
[1] = target: human activated kallikrein enzyme (Homo sapiens, UniProt P03952); test: Inhibition of activated plasma kallikrein, fluorogenic peptide substrate (PFR-AMC) assay, 500 pM enzyme format; type: biochemical; details: 500 pM activated kallikrein, 300 uM PFR-AMC, 30 min preincubation, 10 min reaction, room temperature; read-out: Primary Dose Response Assay: Average EC50
Summary of the method: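 500 pM enzyme preincubated 30 min at room temperature with inhibitor in 20 mM Tris pH 7.5, 150 mM NaCl, 1 mM EDTA, 0.1% PEG-400, 0.1% Triton X-100. Reaction started with 300 uM PFR-AMC and run 10 min at room temperature. Fluorescence read at 380 nm excitation/460 nm emission.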

[2] = target: T1, plasma kallikrein (Homo sapiens, UniProt P03952); test: Neat human plasma assay: contact pathway-activated (FXIIa) plasma, PFR-AMC substrate; type: biochemical; details: citrated human plasma (78% final), 10 nM human FXIIa, 100 μM PFR-AMC, room temperature
T1 construct: from tissue; host or cells: sodium citrate collected human plasma (78% final)
Experimental: To analyze inhibition of plasma kallikrein in an ex vivo setting, the potency of compounds was measure in contact pathway-activated plasma assays. In a fluorogenic peptide substrate assay, test compounds dissolved in DMSO were added to sodium citrate collected human or rat plasma in a 96-well microplate. Alternatively, citrated plasma was collected from rats administered the compounds orally or by IV. 10 nM of human FXIIa (Enzyme Research Laboratories) diluted in pKal buffer (20 mM Tris-HCl, pH 7.5, 150 mM NaCl, 1 mM EDTA, 0.1% PEG-8000, and 0.1% Triton X-100) was added to the plasma, followed by the 100 μM of the profluorescent, synthetic plasma kallikrein substrate PFR-AMC (also diluted in pKal buffer). Final plasma concentration in the reaction was 78%. Fluorescence was immediately monitored by excitation/emission wavelengths of 360 nm/480 nm respectively over a period of 5 minutes in a microplate reader. The resulting linear increase in fluorescence emission (reflecting pKal proteolysis of PFR-AMC substrate) was fit to extract a proteolytic rate (fluorescent units over time), and this rate was subsequently plotted against compound inhibitor concentration. Resulting plots were fit to a standard 4-parameter IC50/IC90 equation to determine min/max values, IC50/90, and slope. All experimental steps were performed at room temperature.

T1 sequence (P03952 391-638 limits assumed): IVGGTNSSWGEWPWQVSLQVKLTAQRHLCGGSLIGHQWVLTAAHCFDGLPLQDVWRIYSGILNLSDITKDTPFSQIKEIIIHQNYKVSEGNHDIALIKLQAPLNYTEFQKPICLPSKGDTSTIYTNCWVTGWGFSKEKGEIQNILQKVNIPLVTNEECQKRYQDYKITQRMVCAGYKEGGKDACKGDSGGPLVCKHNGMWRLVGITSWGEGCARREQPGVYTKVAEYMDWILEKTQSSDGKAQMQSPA
T1 sequence (P03952 20-390 partner limits assumed): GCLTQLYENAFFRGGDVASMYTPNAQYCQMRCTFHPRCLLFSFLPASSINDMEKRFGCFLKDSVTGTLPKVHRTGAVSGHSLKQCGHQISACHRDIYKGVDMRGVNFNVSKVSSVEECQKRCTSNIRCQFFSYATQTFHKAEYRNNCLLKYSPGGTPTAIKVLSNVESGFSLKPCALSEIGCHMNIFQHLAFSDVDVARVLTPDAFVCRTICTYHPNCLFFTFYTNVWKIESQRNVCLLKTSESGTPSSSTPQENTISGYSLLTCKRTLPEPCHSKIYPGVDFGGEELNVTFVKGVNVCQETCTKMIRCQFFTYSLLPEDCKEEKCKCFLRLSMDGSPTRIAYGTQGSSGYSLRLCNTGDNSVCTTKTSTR
human activated kallikrein enzyme, sequence (P03952 391-638 limits assumed): as the sequence (P03952 391-638 limits assumed) above
human activated kallikrein enzyme, sequence (P03952 20-390 partner limits assumed): as the sequence (P03952 20-390 partner limits assumed) above

Row | Compound | EC50 [1] [nM] | IC90 [2] [nM]
1 | Cc1ccnc([C@H]2C[C@@H]2c2cc(N3CC4(COC4)C3)c3ccc(NC(C)c4cn5cc(C6CC6)cc(N6CC(=O)N(C)C6=O)c5n4)cc3n2)n1 (stereo partly drawn) [Example 99, 1-(6-cyclopropyl-2-(1-((2-((1S,2S)-2-(4-methylpyrimidin-2-yl)cyclopropyl)-4-(2-oxa-6-azaspiro[3.3]heptan-6-yl)quinolin-7-yl)amino)ethyl)imidazo[1,2-a]pyridin-8-yl)-3-methylimidazolidine-2,4-dione] | 1 to 10 | 400 to 1500
2 | Cc1ccnc([C@H]2C[C@@H]2c2cc(N3CC4(COC4)C3)c3ccc(NCc4cc5cc(C6CC6)cc(N6CC(=O)N(C)C6=O)n5n4)cc3n2)n1 [Example 107, 1-(5-cyclopropyl-2-(((2-((1S,2S)-2-(4-methylpyrimidin-2-yl)cyclopropyl)-4-(2-oxa-6-azaspiro[3.3]heptan-6-yl)quinolin-7-yl)amino)methyl)pyrazolo[1,5-a]pyridin-7-yl)-3-methylimidazolidine-2,4-dione] | ≤ 1 | ≤ 400
3 | Cc1ccnc([C@H]2C[C@@H]2c2cc(N3CC4(COC4)C3)c3ccc(OCc4cc5cc(C6CC6)cc(N6CC(=O)N(C)C6=O)n5n4)cc3n2)n1 [Example 108, 1-(5-cyclopropyl-2-(((2-((1S,2S)-2-(4-methylpyrimidin-2-yl)cyclopropyl)-4-(2-oxa-6-azaspiro[3.3]heptan-6-yl)quinolin-7-yl)oxy)methyl)pyrazolo[1,5-a]pyridin-7-yl)-3-methyl imidazolidine-2,4-dione] | ≤ 1 | ≤ 400
4 | CCN1CCN(c2cc(C3CC3)cn3cc(CNc4ccc5ccc([C@H]6C[C@@H]6c6nccc(C)n6)nc5c4)nc23)CC1 (racemic) [Example 74, rac-N-((6-cyclopropyl-8-(4-ethylpiperazin-1-yl)imidazo[1,2-a]pyridin-2-yl)methyl)-2-((1S*,2S*)-2-(4-methylpyrimidin-2-yl)cyclopropyl)quinolin-7-amine] | ≤ 1 | 1500 to 10000
5 | Cc1ccnc([C@H]2C[C@@H]2c2ccc3c(C#N)cc(NCc4cn5cc(C6CC6)cc(N6CC(=O)N(C)C6=O)c5n4)cc3n2)n1 (racemic) [Example 82, rac-7-(((6-cyclopropyl-8-(3-methyl-2,4-dioxoimidazolidin-1-yl)imidazo[1,2-a]pyridin-2-yl)methyl)amino)-2-((1S*,2S*)-2-(4-methylpyrimidin-2-yl)cyclopropyl)quinoline-5-carbonitrile] | 1 to 10 | 1500 to 10000
6 | Cc1ccnc([C@H]2C[C@@H]2c2cc(OC3CCN(C)CC3)c3ccc(NCc4cn5cc(C6CC6)cc(N6CC(=O)N(C)C6=O)c5n4)cc3n2)n1 (racemic) [Example 35, rac-1-(6-cyclopropyl-2-(((4-((1-methylpiperidin-4-yl)oxy)-2-((1S*,2S*)-2-(4-methylpyrimidin-2-yl)cyclopropyl)quinolin-7-yl)amino)methyl)imidazo[1,2-a]pyridin-8-yl)-3-methylimidazolidine-2,4-dione] | ≤ 1 | ≤ 400
7 | Cc1ccnc([C@H]2C[C@@H]2c2cc(N(C)C)c3ccc(NCc4cn5cc(C6CC6)ccc5n4)cc3n2)n1 (racemic) [Example 1, rac-N^7-((6-cyclopropylimidazo[1,2-a]pyridin-2-yl)methyl)-N^4,N^4-dimethyl-2-((1S*,2S*)-2-(4-methylpyrimidin-2-yl)cyclopropyl)quinoline-4,7-diamine] | ≤ 1 | 400 to 1500
8 | Cc1ccnc([C@H]2C[C@@H]2c2ccc3ccc(N4C[C@@H](O)C[C@@H]4c4cn5cc(C6CC6)cc(N6CC(=O)N(C)C6=O)c5n4)cc3n2)n1 (relative stereo) [Example 68, rac-1-(6-cyclopropyl-2-((2R,4S)-4-hydroxy-1-(2-((1S*,2S*)-2-(4-methylpyrimidin-2-yl)cyclopropyl)quinolin-7-yl)pyrrolidin-2-yl)imidazo[1,2-a]pyridin-8-yl)-3-methylimidazolidine-2,4-dione] | 1 to 10 | 1500 to 10000
9 | COc1cc([C@H]2C[C@@H]2c2nccc(C)n2)nc2cc(NCc3cn4cc(C5CC5)ccc4n3)ccc12 (racemic) [Example 20, rac-N-((6-cyclopropylimidazo[1,2-a]pyridin-2-yl)methyl)-4-methoxy-2-((1S*,2S*)-2-(4-methylpyrimidin-2-yl)cyclopropyl)quinolin-7-amine] | 1 to 10 | 10000 to 22000

The next lines start with the values.

Row | EC50 [1] [nM] | IC90 [2] [nM] | Compound
10 | ≤ 1 | 400 to 1500 | Cc1ccnc([C@H]2C[C@@H]2c2cc(OC3COC3)c3ccc(NCc4cn5cc(C6CC6)cc(N6CC(=O)N(C)C6=O)c5n4)cc3n2)n1 (racemic) [Example 33, rac-1-(6-cyclopropyl-2-(((2-((1S*,2S*)-2-(4-methylpyrimidin-2-yl)cyclopropyl)-4-(oxetan-3-yloxy)quinolin-7-yl)amino)methyl)imidazo[1,2-a]pyridin-8-yl)-3-methylimidazolidine-2,4-dione]
11 | ≤ 1 | 400 to 1500 | Cc1ccnc([C@H]2C[C@@H]2c2cc(CO)c3ccc(NCc4cn5cc(C6CC6)cc(N6CC(=O)N(C)C6=O)c5n4)cc3n2)n1 (racemic) [Example 77, rac-1-(6-cyclopropyl-2-(((4-(hydroxymethyl)-2-((1S*,2S*)-2-(4-methylpyrimidin-2-yl)cyclopropyl)quinolin-7-yl)amino)methyl)imidazo[1,2-a]pyridin-8-yl)-3-methylimidazolidine-2,4-dione]
12 | ≤ 1 | ≤ 400 | Cc1ccnc([C@H]2C[C@@H]2c2cc(NCC(C)(C)O)c3ccc(OCc4cn5cc(C6CC6)cc(N6CC(=O)N(C)C6=O)c5n4)cc3n2)n1 [Example 97, 1-(6-cyclopropyl-2-(((4-((2-hydroxy-2-methylpropyl)amino)-2-((1S,2S)-2-(4-methylpyrimidin-2-yl)cyclopropyl)quinolin-7-yl)oxy)methyl)imidazo[1,2-a]pyridin-8-yl)-3-methylimidazolidine-2,4-dione]
13 | ≤ 1 | ≤ 400 | Cc1ccnc([C@H]2C[C@@H]2c2cc(N3CC4(COC4)C3)c3cnc(OCc4cn5cc(C6CC6)cc(N6CC(=O)N(C)C6=O)c5n4)cc3n2)n1 [Example 103, 1-(6-cyclopropyl-2-(((2-((1S,2S)-2-(4-methylpyrimidin-2-yl)cyclopropyl)-4-(2-oxa-6-azaspiro[3.3]heptan-6-yl)-1,6-naphthyridin-7-yl)oxy)methyl)imidazo[1,2-a]pyridin-8-yl)-3-methylimidazolidine-2,4-dione]
14 | ≤ 1 | 1500 to 10000 | Cc1ccnc([C@H]2C[C@@H]2C2=NS(=O)(=O)c3ccc(N(C)Cc4cn5cc(C6CC6)ccc5n4)cc3N2)n1 (racemic) [Example 80, rac-6-(((6-cyclopropylimidazo[1,2-a]pyridin-2-yl)methyl)(methyl)amino)-3-((1S*,2S*)-2-(4-methylpyrimidin-2-yl)cyclopropyl)-4H-benzo[e][1,2,4]thiadiazine 1,1-dioxide]
15 | ≤ 1 | 400 to 1500 | Cc1ccnc([C@H]2C[C@@H]2c2ccc3c(N(C)C)cc(NCc4cn5cc(C6CC6)cc(N6CC(=O)N(C)C6=O)c5n4)cc3n2)n1 (racemic) [Example 88, rac-1-(6-cyclopropyl-2-(((5-(dimethylamino)-2-((1S*,2S*)-2-(4-methylpyrimidin-2-yl)cyclopropyl)quinolin-7-yl)amino)methyl)imidazo[1,2-a]pyridin-8-yl)-3-methylimidazolidine-2,4-dione]
